In ChEMBL document CHEMBL4152218, “Novel hydrazide-hydrazone and amide substituted coumarin derivatives: Synthesis, cytotoxicity screening, microarray, radiolabeling and in vivo pharmacokinetic studies” (Eur J Med Chem, 2018):
Active and inactive are the calls of the source. The calls are words filed in the database; no cut-off is given here.

Tests used:
HepG2 [1] = assay: Effect on GDF15 gene expression in human HepG2 cells at IC50 after 48 hrs by microarray analysis relative to control; assay type: functional
HepG2 [2] = assay: Effect on TMEM132D gene expression in human HepG2 cells at IC50 after 48 hrs by microarray analysis; assay type: functional, cell-based
PANC-1 [3] = assay: Effect on NSBP1 gene expression in human PANC1 cells at IC50 after 48 hrs by microarray analysis; assay type: functional, cell-based
HepG2 [4] = assay: Effect on GADD45G gene expression in human HepG2 cells at IC50 after 48 hrs by microarray analysis; assay type: functional, cell-based
HepG2 [5] = assay: Effect on SRXN1 gene expression in human HepG2 cells at IC50 after 48 hrs by microarray analysis; assay type: functional, cell-based
[6] = Selectivity index, ratio of IC50 for hTERT-RPE1 cells to IC50 for human HepG2 cells; assay type: toxicity; settings: hTERT-RPE1 cells versus HepG2 cells, read-out: Ratio IC50
TERT-RPE1 [7] = assay: Cytotoxicity against hTERT-RPE1 cells at 50 uM after 48 hrs by resazurin dye-based fluorescence assay relative to control; assay type: cell-based; settings: human, tert-rpe1, 48 h
HepG2 [8] = assay: Effect on CPB2 gene expression in human HepG2 cells at IC50 after 48 hrs by microarray analysis; assay type: functional, cell-based
HepG2 [9] = assay: Effect on NAV 2 gene expression in human HepG2 cells at IC50 after 48 hrs by microarray analysis; assay type: functional, cell-based
PANC-1 [10] = assay: Effect on PAH gene expression in human PANC1 cells at IC50 after 48 hrs by microarray analysis; assay type: functional, cell-based
Cytochrome P450 3A4 = Cytochrome P450 3A4 (Homo sapiens, UniProt P08684); assay: Inhibition of human recombinant CYP3A4 using luciferin as substrate preincubated for 10 mins followed by substrate addition and measured after 50 mins in presence of NADPH by CYP450-Glo assay; assay type: ADME; settings: recombinant enzyme
Chain of Cytochrome P450 3A4 (P08684 whole entry): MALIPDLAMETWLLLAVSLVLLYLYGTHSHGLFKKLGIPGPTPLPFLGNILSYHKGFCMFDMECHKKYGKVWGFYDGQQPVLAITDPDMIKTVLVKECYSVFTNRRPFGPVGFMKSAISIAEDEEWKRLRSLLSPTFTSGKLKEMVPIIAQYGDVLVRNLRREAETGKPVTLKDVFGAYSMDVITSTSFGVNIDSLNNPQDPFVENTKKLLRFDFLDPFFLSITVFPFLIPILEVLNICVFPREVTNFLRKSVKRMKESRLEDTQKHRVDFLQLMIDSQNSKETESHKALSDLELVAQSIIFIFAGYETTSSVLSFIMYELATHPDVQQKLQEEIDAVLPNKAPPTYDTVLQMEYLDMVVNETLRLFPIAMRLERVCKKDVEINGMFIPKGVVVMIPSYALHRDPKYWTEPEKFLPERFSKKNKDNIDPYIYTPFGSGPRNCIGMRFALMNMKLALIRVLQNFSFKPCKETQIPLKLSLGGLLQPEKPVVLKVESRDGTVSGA

PANC-1 [11] = assay: Effect on PVRL3 gene expression in human PANC1 cells at IC50 after 48 hrs by microarray analysis; assay type: functional, cell-based
PANC-1 [12] = assay: Effect on HSPE1 gene expression in human PANC1 cells at IC50 after 48 hrs by microarray analysis; assay type: functional, cell-based
PANC-1 [13] = assay: Effect on TBC1D26 gene expression in human PANC1 cells at IC50 after 48 hrs by microarray analysis; assay type: functional, cell-based
HepG2 [14] = assay: Effect on DIDO1 gene expression in human HepG2 cells at IC50 after 48 hrs by microarray analysis; assay type: functional, cell-based
[15] = Inhibition of GST (unknown origin) using CDNB as substrate by spectrophotometric analysis; settings: human
HepG2 [16] = assay: Effect on TOP2B gene expression in human HepG2 cells at IC50 after 48 hrs by microarray analysis; assay type: functional, cell-based
PANC-1 [17] = assay: Effect on RNF151 gene expression in human PANC1 cells at IC50 after 48 hrs by microarray analysis; assay type: functional, cell-based
PANC-1 [18] = assay: Effect on RBM39 gene expression in human PANC1 cells at IC50 after 48 hrs by microarray analysis; assay type: functional, cell-based
HepG2 [19] = assay: Effect on CYP1A1 gene expression in human HepG2 cells at IC50 after 48 hrs by microarray analysis; assay type: ADME, cell-based; settings: hepg2, 48 h
HepG2 [20] = assay: Effect on OR5P2 gene expression in human HepG2 cells at IC50 after 48 hrs by microarray analysis; assay type: functional, cell-based
PANC-1 [21] = assay: Effect on JMJD2B gene expression in human PANC1 cells at IC50 after 48 hrs by microarray analysis; assay type: functional, cell-based
HepG2 [22] = assay: Effect on GRP gene expression in human HepG2 cells at IC50 after 48 hrs by microarray analysis; assay type: functional, cell-based
HepG2 [23] = assay: Effect on GADD45A gene expression in human HepG2 cells at IC50 by SYBR green-dye based qRT-PCR analysis relative to beta-actin; assay type: functional
HepG2 [24] = assay: Effect on DKK1 gene expression in human HepG2 cells at IC50 after 48 hrs by microarray analysis; assay type: functional, cell-based
PANC-1 [25] = assay: Effect on TOP3A gene expression in human PANC1 cells at IC50 after 48 hrs by microarray analysis; assay type: functional, cell-based
hTERT-BJ = assay: Cytotoxicity against hTERT-BJ cells after 48 hrs by resazurin dye-based fluorescence assay; assay type: cell-based; settings: Homo sapiens
HepG2 [26] = assay: Effect on GADD45A gene expression in human HepG2 cells at IC50 after 48 hrs by microarray analysis relative to control; assay type: functional
PANC-1 [27] = assay: Effect on HIST1H4C gene expression in human PANC1 cells at IC50 after 48 hrs by microarray analysis; assay type: functional, cell-based
PANC-1 [28] = assay: Effect on ELP2P gene expression in human PANC1 cells at IC50 after 48 hrs by microarray analysis; assay type: functional, cell-based
PANC-1 [29] = assay: Effect on TDG gene expression in human PANC1 cells at IC50 after 48 hrs by microarray analysis; assay type: functional, cell-based
HepG2 [30] = assay: Effect on CASP7 gene expression in human HepG2 cells at IC50 after 48 hrs by microarray analysis relative to control; assay type: functional
[31] = Selectivity index, ratio of IC50 for hTERT-RPE1 cells to IC50 for human CCRF-CEM cells; assay type: toxicity; settings: hTERT-RPE1 cells versus CCRF-CEM cells, read-out: Ratio IC50
HepG2 [32] = assay: Effect on SYT2 gene expression in human HepG2 cells at IC50 after 48 hrs by microarray analysis; assay type: functional, cell-based
TERT-RPE1 [33] = assay: Cytotoxicity against hTERT-RPE1 cells at 12.50 uM after 48 hrs by resazurin dye-based fluorescence assay relative to control; assay type: cell-based; settings: human, tert-rpe1, 48 h, 12.5 µM
HepG2 [34] = assay: Effect on GST M1 gene expression in human HepG2 cells at IC50 after 48 hrs by microarray analysis; assay type: functional, cell-based
PANC-1 [35] = assay: Effect on PCNA gene expression in human PANC1 cells at IC50 after 48 hrs by microarray analysis; assay type: functional, cell-based
PANC-1 [36] = assay: Effect on MATK gene expression in human PANC1 cells at IC50 after 48 hrs by microarray analysis; assay type: functional, cell-based
PANC-1 [37] = assay: Effect on LIMK1 gene expression in human PANC1 cells at IC50 after 48 hrs by microarray analysis; assay type: functional, cell-based
PANC-1 [38] = assay: Effect on CAMK2N1 gene expression in human PANC1 cells at IC50 after 48 hrs by microarray analysis; assay type: functional, cell-based
PANC-1 [39] = assay: Antiproliferative activity against human PANC1 cells after 48 hrs by resazurin dye-based fluorescence assay; assay type: functional, cell-based; settings: PANC-1, 48 h
HepG2 [40] = assay: Effect on GOLPH4 gene expression in human HepG2 cells at IC50 after 48 hrs by microarray analysis; assay type: functional, cell-based
HepG2 [41] = assay: Effect on TOP2A gene expression in human HepG2 cells at IC50 after 48 hrs by microarray analysis relative to control; assay type: functional
PANC-1 [42] = assay: Effect on THOC2 gene expression in human PANC1 cells at IC50 after 48 hrs by microarray analysis; assay type: functional, cell-based
HepG2 [43] = assay: Effect on C1orf186 gene expression in human HepG2 cells at IC50 after 48 hrs by microarray analysis; assay type: functional, cell-based
PANC-1 [44] = assay: Effect on YY1 gene expression in human PANC1 cells at IC50 after 48 hrs by microarray analysis; assay type: functional, cell-based
HepG2 [45] = assay: Effect on TOP2A gene expression in human HepG2 cells at IC50 by SYBR green-dye based qRT-PCR analysis relative to beta-actin; assay type: functional

For `O=C(N/N=C/c1cc2ccccc2nc1Cl)c1cc2cc(Br)ccc2oc1=O`, the “fold change (FC)” value (HepG2 [1]) was 4.56, the Activity (HepG2 [2]) was “Active” and the Activity (PANC-1 [3]) was “Active”. For the same compound, the Activity (HepG2 [4]) was “Active”, the Activity (HepG2 [5]) was “Active” and the selectivity ratio [6] was over 5.31. The Activity (TERT-RPE1 [7]) was 20.18%, the Activity (HepG2 [8]) was “Active” and the Activity (HepG2 [9]) was “Active”. The Activity (PANC-1 [10]) was “Active”, the “inhibition (INH)” value (Cytochrome P450 3A4) was “Dose-dependent effect” and the Activity (PANC-1 [11]) was “Active”. For the same compound, the Activity (PANC-1 [12]) was “Active”, the Activity (PANC-1 [13]) was “Active” and the Activity (HepG2 [14]) was “Active”. For the same compound, the “inhibition (INH)” value [15] was “Dose-dependent effect”, the Activity (HepG2 [16]) was “Active” and the Activity (PANC-1 [17]) was “Active”. The Activity (PANC-1 [18]) was “Active”, the Activity (HepG2 [19]) was “Active” and the Activity (HepG2 [20]) was “Active”. For the same compound, the Activity (PANC-1 [21]) was “Active”, the Activity (HepG2 [22]) was “Active” and the “fold change (FC)” value (HepG2 [23]) was 3.52. The Activity (HepG2 [24]) was “Active”, the Activity (PANC-1 [25]) was “Active” and the IC50 (hTERT-BJ) was over 50 µM. For the same compound, the “fold change (FC)” value (HepG2 [26]) was 1.96, the Activity (PANC-1 [27]) was “Active” and the Activity (PANC-1 [28]) was “Active”. For the same compound, the Activity (PANC-1 [29]) was “Active”, the “fold change (FC)” value (HepG2 [30]) was 3.18 and the selectivity ratio [31] was over 6.71. For the same compound, the Activity (HepG2 [32]) was “Active”, the Activity (TERT-RPE1 [33]) was 12.73% and the Activity (HepG2 [34]) was “Active”. For the same compound, the Activity (PANC-1 [35]) was “Active”, the Activity (PANC-1 [36]) was “Active” and the Activity (PANC-1 [37]) was “Active”. The Activity (PANC-1 [38]) was “Active”, the IC50 (PANC-1 [39]) was 5.45 µM and the Activity (HepG2 [40]) was “Active”. The “fold change (FC)” value (HepG2 [41]) was -3.57, the Activity (PANC-1 [42]) was “Active” and the Activity (HepG2 [43]) was “Active”. For the same compound, the Activity (PANC-1 [44]) was “Active” and the “fold change (FC)” value (HepG2 [45]) was -1.54.
